Patent publication US11464770B2, “Anticancer pharmaceutical composition” (NATIONAL CANCER CENTER, priority 2016, dated 2022)
Where two headings read alike, the source gives them in different places.

How the values were obtained:
brain cancer cell lines = assay: Cell based assay, cell viability (CellTiter-Glo), brain cancer cell lines; conditions: Homo sapiens
[1] = system: lung cancer cell lines (e.g. NCI-H23, NCI-H1229); assay: Cell based assay, cell viability (CellTiter-Glo), lung cancer cell lines; conditions: Homo sapiens
Summary of the method: (§1)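 Cell lines seeded, cultured 24 hours, then exposed to compound at final 0 to 2 μM. After a further 72 hours, viability measured by ATP-detection luminescence (CellTiter-Glo).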

renal cancer cell lines = assay: Cell based assay, cell viability (CellTiter-Glo), renal cancer cell lines; conditions: Homo sapiens; ACHN cells
Summary of the method: as §1

[2] = U138-MG, U-138 MG cell line, read-out: IC50, Brain cancer cell line U-138 MG
[3] = T98G cell line, read-out: IC50, Brain cancer cell line T98G
[4] = U-251 MG cell line, read-out: IC50, Brain cancer cell line U-251 MG
[5] = A549 cells, 72 hours treatment, CellTiter-Glo, read-out: IC50, lung cancer cell line A549
[6] = DMS 114 cells, 72 hours treatment, CellTiter-Glo, read-out: IC50, lung cancer cell line DMS 114
[7] = MRC-5 cells, 72 hours treatment, CellTiter-Glo, read-out: IC50
[8] = NCI-H23 cells, 72 hours treatment, CellTiter-Glo, read-out: IC50, lung cancer cell line NCI-H23
[9] = NCI-H460 cells, 72 hours treatment, CellTiter-Glo, read-out: IC50, lung cancer cell line NCI-H460
[10] = NCI-H522 cells, 72 hours treatment, CellTiter-Glo, read-out: IC50, lung cancer cell line NCI-H522
[11] = NCI-H1299 cells, 72 hours treatment, CellTiter-Glo, read-out: IC50, lung cancer cell line NCI-H1299
[12] = NCI-H1437 cells, 72 hours treatment, CellTiter-Glo, read-out: IC50, lung cancer cell line NCI-H1437
[13] = Lung cancer cell line A549, 72 hours, cell viability (CellTiter-Glo), read-out: IC50, A549
[14] = Lung cancer cell line DMS 114, 72 hours, cell viability (CellTiter-Glo), read-out: IC50, DMS 114
[15] = Lung cancer cell line NCI-H23, 72 hours, cell viability (CellTiter-Glo), read-out: IC50, NCI-H23
[16] = Lung cancer cell line NCI-H460, 72 hours, cell viability (CellTiter-Glo), read-out: IC50, NCI-H460
[17] = Lung cancer cell line NCI-H522, 72 hours, cell viability (CellTiter-Glo), read-out: IC50, NCI-H522
[18] = Lung cancer cell line NCI-H1299, 72 hours, cell viability (CellTiter-Glo), read-out: IC50, NCI-H1299
[19] = Lung cancer cell line NCI-H1437, 72 hours, cell viability (CellTiter-Glo), read-out: IC50, NCI-H1437
[20] = MRC-5 (listed under Lung cancer cell line), 72 hours, cell viability (CellTiter-Glo), read-out: IC50, MRC-5

Row | Compound | IC50 (brain cancer cell lines; [2]) [µM] | IC50 (brain cancer cell lines; [3]) [µM] | IC50 (brain cancer cell lines; [4]) [µM] | IC50 [1, 5] [µM] | IC50 [1, 6] [µM] | IC50 [1, 7] [µM] | IC50 [1, 8] [µM] | IC50 [1, 9] [µM] | IC50 [1, 10] [µM] | IC50 [1, 11] [µM] | IC50 [1, 12] [µM] | IC50 (renal cancer cell lines) [µM] | IC50 [1, 13] [µM] | IC50 [1, 14] [µM] | IC50 [1, 15] [µM] | IC50 [1, 16] [µM] | IC50 [1, 17] [µM] | IC50 [1, 18] [µM] | IC50 [1, 19] [µM] | IC50 [1, 20] [µM]
1 | O=C(c1ccccc1)c1c([S+]([O-])Cc2ccc(S(F)(F)(F)(F)F)cc2)[nH]c2c(F)ccc(F)c2c1=O (stereo not drawn) [Compound 87, 3-benzoyl-5,8-difluoro-2-((4-(pentafluoro--sulfanyl)benzyl)sulfinyl)quinolin-4(1H)-one] | > 10 | > 10 | > 2 | > 2 | > 2 | > 2 | > 2 | > 2 | > 2 | > 2 | > 10 | > 2 | – | – | – | – | – | – | – | –
2 | CC(=O)c1c([S+](C)[O-])n(S(=O)(=O)C(F)(F)F)c2c(Br)ccc(Cl)c2c1=O (stereo not drawn) [Compound 36, 3-acetyl-8-bromo-5-chloro-2-(methylsulfinyl)-1-((trifluoromethyl)sulfonyl)quinolin-4(1H)-one] | > 2 | > 10 | > 2 | > 2 | > 2 | > 2 | > 2 | > 2 | > 2 | > 2 | > 10 | > 2 | – | – | – | – | – | – | – | –
3 | CC(=O)c1c([S+]([O-])Cc2cccc(C#N)c2)[nH]c2c(Br)ccc(Cl)c2c1=O (stereo not drawn) [Compound 28, 3-(((3-acetyl-8-bromo-5-chloro-4-oxo-1,4-dihydroquinolin-2-yl)sulfinyl)methyl)benzonitrile] | 1.26 | > 10 | 0.88 | > 2 | > 2 | 0.7 | 0.75 | 1.6 | 1.88 | 1.11 | > 10 | > 2 | – | – | – | – | – | – | – | –
4 | CC(=O)c1c([S+]([O-])c2ccccc2)[nH]c2c(Br)ccc(Cl)c2c1=O (stereo not drawn) [Compound 13, 3-acetyl-8-bromo-5-chloro-2-(phenylsulfinyl)quinolin-4(1H)-one] | > 10 | > 10 | > 2 | > 2 | > 2 | > 2 | > 2 | > 2 | > 2 | > 2 | > 10 | > 2 | – | – | – | – | – | – | – | –
5 | CSc1c(C(C)=O)c(=O)c2c(Cl)ccc(Br)c2n1C(C)=O [Compound 18, 1,1′-(8-bromo-5-chloro-2-(methylthio)-4-oxoquinoline-1,3(4H)-diyl)bis(ethan-1-one)] | > 10 | > 10 | > 2 | > 2 | > 2 | > 2 | > 2 | > 2 | > 2 | > 2 | > 10 | > 2 | – | – | – | – | – | – | – | –
6 | CC(=O)c1c(SCc2ccc(Cl)cc2)[nH]c2c(Br)ccc(Cl)c2c1=O [Compound 10, 3-acetyl-8-bromo-5-chloro-2-((4-chlorobenzyl)thio)quinolin-4(1H)-one] | > 10 | > 10 | > 2 | > 2 | > 2 | > 2 | > 2 | > 2 | > 2 | > 2 | > 10 | > 2 | – | – | – | – | – | – | – | –
7 | CC(=O)c1c(S)[nH]c2c(Br)ccc(Cl)c2c1=O [Compound 62, 3-acetyl-8-bromo-5-chloro-2-mercaptoquinolin-4(1H)-one] | > 10 | > 10 | > 2 | > 2 | > 2 | > 2 | > 2 | > 2 | > 2 | > 2 | > 10 | > 2 | – | – | – | – | – | – | – | –
8 | CC(=O)c1c(SCc2cc(Cl)ccc2Cl)[nH]c2c(Br)ccc(Cl)c2c1=O [Compound 43, 3-acetyl-8-bromo-5-chloro-2-((2,5-dichlorobenzyl)thio)quinolin-4(1H)-one] | > 10 | > 10 | > 2 | > 2 | > 2 | > 2 | > 2 | > 2 | > 2 | > 2 | > 10 | > 2 | – | – | – | – | – | – | – | –
9 | CC(=O)c1c([S+]([O-])CN2C(=O)c3ccccc3C2=O)[nH]c2c(Cl)ccc(Cl)c2c1=O (stereo not drawn) [Compound 90, 2-(((3-acetyl-5,8-dichloro-4-oxo-1,4-dihydroquinolin-2-yl)sulfinyl)methyl)isoindoline-1,3-dione] | > 10 | > 10 | > 2 | > 2 | > 2 | > 2 | > 2 | > 2 | > 2 | > 2 | > 10 | > 2 | – | – | – | – | – | – | – | –
10 | CSc1[nH]c2ccc(F)cc2c(=O)c1C(C)=O [Compound 8, 1-(6-fluoro-4-hydroxy-2-(methylthio)quinolin-3-yl)ethan-1-one] | > 10 | > 10 | > 2 | > 2 | > 2 | > 2 | > 2 | > 2 | > 2 | > 2 | > 10 | > 2 | – | – | – | – | – | – | – | –
11 | CC(=O)c1c([S+]([O-])Cc2ccc(Cl)nc2)[nH]c2c(Br)ccc(Cl)c2c1=O (stereo not drawn) [Compound 104, 3-acetyl-8-bromo-5-chloro-2-(((6-chloropyridin-3-yl)methyl)sulfinyl)quinolin-4(1H)-one] | 1.47 | > 10 | > 2 | – | – | – | – | – | – | – | – | 1.2 | 1.68 | > 2 | 1.27 | 1.51 | 1.41 | 1.17 | > 10 | 1.62
12 | CC(=O)c1c(SCc2ccc(F)c(Cl)c2)[nH]c2c(Br)ccc(Cl)c2c1=O [Compound 30, 3-acetyl-8-bromo-5-chloro-2-((3-chloro-4-fluorobenzyl)thio)quinolin-4(1H)-one] | > 10 | > 10 | > 2 | > 2 | > 2 | > 2 | > 2 | > 2 | > 2 | > 2 | > 10 | > 2 | – | – | – | – | – | – | – | –
13 | CC(=O)c1c([S+]([O-])Cc2cc(C)on2)[nH]c2c(F)ccc(F)c2c1=O (stereo not drawn) [Compound 82, 3-acetyl-5,8-difluoro-2-(((5-methylisoxazol-3-yl)methyl)sulfinyl)quinolin-4(1H)-one] | > 2 | > 10 | > 2 | > 2 | > 2 | > 2 | > 2 | > 2 | > 2 | > 2 | > 10 | > 2 | – | – | – | – | – | – | – | –
14 | CSc1c(C(C)=O)c(=O)c2cc(F)ccc2n1C [Compound 7, 3-acetyl-6-fluoro-1-methyl-2-(methylthio)quinolin-4(1H)-one] | > 10 | > 10 | > 2 | > 2 | > 2 | > 2 | > 2 | > 2 | > 2 | > 2 | > 10 | > 2 | – | – | – | – | – | – | – | –
15 | CC(=O)c1c([S+](C)[O-])n(Cc2ccc(F)c(Cl)c2)c2c(Br)ccc(Cl)c2c1=O (stereo not drawn) [Compound 22, 3-acetyl-8-bromo-5-chloro-1-(3-chloro-4-fluorobenzyl)-2-(methylsulfinyl)quinolin-4(1H)-one] | > 10 | > 10 | > 2 | > 2 | > 2 | > 2 | > 2 | > 2 | > 2 | > 2 | > 10 | > 2 | – | – | – | – | – | – | – | –
16 | CC(=O)c1c(SCc2ccccc2)[nH]c2c(Br)ccc(Cl)c2c1=O [Compound 3, 3-acetyl-2-(benzylthio)-8-bromo-5-chloroquinolin-4(1H)-one] | > 10 | > 10 | > 2 | > 2 | > 2 | > 2 | > 2 | > 2 | > 2 | > 2 | > 10 | > 2 | – | – | – | – | – | – | – | –
17 | CC(=O)c1c([S+]([O-])Cc2ccc(NS(C)(=O)=O)cc2)[nH]c2c(Br)ccc(Cl)c2c1=O (stereo not drawn) [Compound 103, N-(4-(((3-acetyl-8-bromo-5-chloro-4-oxo-1,4-dihydroquinolin-2-yl)sulfinyl)methyl)phenyl)methane-sulfonamide] | > 2 | > 10 | > 2 | – | – | – | – | – | – | – | – | > 2 | > 2 | > 2 | > 2 | > 2 | > 2 | > 2 | > 10 | > 2
18 | Cc1cc(C[S+]([O-])c2[nH]c3c(Cl)ccc(Cl)c3c(=O)c2C(=O)C2CC2)no1 (stereo not drawn) [Compound 97, 5,8-dichloro-3-(cyclopropanecarbonyl)-2-(((5-methylisoxazol-3-yl)methyl)sulfinyl)quinolin-4(1H)-one] | 1.69 | > 10 | 1.12 | > 2 | > 2 | 1.43 | 1.09 | 1.46 | 1.32 | 1.48 | > 10 | 1.33 | – | – | – | – | – | – | – | –
19 | Cc1cc(C[S+]([O-])c2[nH]c3c(Br)ccc(Cl)c3c(=O)c2C(=O)C2CC2)no1 (stereo not drawn) [Compound 96, 8-bromo-5-chloro-3-(cyclopropanecarbonyl)-2-(((5-methylisoxazol-3-yl)methyl)sulfinyl)quinolin-4(1H)-one] | > 2 | > 10 | 1.31 | > 2 | > 2 | 1.81 | 1.34 | > 2 | 1.82 | 1.8 | > 10 | 1.67 | – | – | – | – | – | – | – | –
20 | CC(=O)c1c(SCC#N)[nH]c2c(Br)ccc(Cl)c2c1=O [Compound 66, 2-((3-acetyl-8-bromo-5-chloro-4-oxo-1,4-dihydroquinolin-2-yl)thio)acetonitrile] | > 10 | > 10 | > 2 | > 2 | > 2 | > 2 | > 2 | > 2 | > 2 | > 2 | > 10 | > 2 | – | – | – | – | – | – | – | –
